Experimental data from ChEMBL document CHEMBL4138123, “Design, synthesis and biological evaluation of novel pyrazolochalcones as potential modulators of PI3K/Akt/mTOR pathway and inducers of apoptosis in breast cancer cells” (Eur J Med Chem, 2017).

Experiments:
Type in all cases: functional
[1] = system: MOLT-4; experiment: Cytotoxicity against human MOLT4 cells assessed as growth inhibition after 48 hrs by sulforhodamine B assay; conditions: MOLT-4, 48 h; for CC50: read-out: LC50 (the source's name)
[2] = system: HOP-62; experiment: Cytotoxicity against human HOP62 cells assessed as growth inhibition after 48 hrs by sulforhodamine B assay; conditions: HOP-62, 48 h
[3] = system: NCI-H460; experiment: Cytotoxicity against human NCI-H460 cells assessed as growth inhibition after 48 hrs by sulforhodamine B assay; conditions: NCI-H460, 48 h
[4] = system: M14; experiment: Cytotoxicity against human M14 cells assessed as growth inhibition after 48 hrs by sulforhodamine B assay; conditions: M14, 48 h
[5] = system: NCI/ADR-RES; experiment: Cytotoxicity against human NCI/ADR-RES cells assessed as growth inhibition after 48 hrs by sulforhodamine B assay
[6] = system: 786-0; experiment: Cytotoxicity against human 786-0 cells assessed as growth inhibition after 48 hrs by sulforhodamine B assay; conditions: 786-0, 48 h
[7] = system: M14; experiment: Cytotoxicity against human M14 cells assessed as cell growth at 0.01 uM after 48 hrs by sulforhodamine B assay relative to control; conditions: M14, 48 h, read-out: Activity
[8] = system: SW-620; experiment: Cytotoxicity against human SW620 cells assessed as cell growth at 0.01 uM after 48 hrs by sulforhodamine B assay relative to control; conditions: SW-620, 48 h, read-out: Activity
[9] = system: NCI-H23; experiment: Cytotoxicity against human NCI-H23 cells assessed as cell growth at 0.01 uM after 48 hrs by sulforhodamine B assay relative to control; conditions: NCI-H23, 48 h, read-out: Activity
[10] = system: NCI-H226; experiment: Cytotoxicity against human NCI-H226 cells assessed as cell growth at 0.01 uM after 48 hrs by sulforhodamine B assay relative to control; conditions: NCI-H226, 48 h, read-out: Activity
[11] = system: SF-539; experiment: Cytotoxicity against human SF539 cells assessed as cell growth at 0.1 uM after 48 hrs by sulforhodamine B assay relative to control; conditions: SF-539, 48 h, read-out: Activity
[12] = system: U-251; experiment: Cytotoxicity against human U251 cells assessed as cell growth at 0.1 uM after 48 hrs by sulforhodamine B assay relative to control; conditions: U-251, 48 h, read-out: Activity
[13] = system: M14; experiment: Cytotoxicity against human M14 cells assessed as cell growth at 0.1 uM after 48 hrs by sulforhodamine B assay relative to control; conditions: M14, 48 h, read-out: Activity
[14] = system: OVCAR-4; experiment: Cytotoxicity against human OVCAR4 cells assessed as cell growth at 0.1 uM after 48 hrs by sulforhodamine B assay relative to control; conditions: OVCAR-4, 48 h, read-out: Activity
[15] = system: OVCAR-8; experiment: Cytotoxicity against human OVCAR8 cells assessed as cell growth at 0.1 uM after 48 hrs by sulforhodamine B assay relative to control; conditions: OVCAR-8, 48 h, read-out: Activity
[16] = system: NCI/ADR-RES; experiment: Cytotoxicity against human NCI/ADR-RES cells assessed as cell growth at 0.1 uM after 48 hrs by sulforhodamine B assay relative to control; conditions: read-out: Activity
[17] = system: SK-OV-3; experiment: Cytotoxicity against human SKOV3 cells assessed as cell growth at 0.1 uM after 48 hrs by sulforhodamine B assay relative to control; conditions: SK-OV-3, 48 h, read-out: Activity
[18] = system: HL-60(TB); experiment: Cytotoxicity against human HL-60(TB) cells assessed as cell growth at 1 uM after 48 hrs by sulforhodamine B assay relative to control; conditions: HL-60, 48 h, read-out: Activity
[19] = system: NCI-H460; experiment: Cytotoxicity against human NCI-H460 cells assessed as cell growth at 1 uM after 48 hrs by sulforhodamine B assay relative to control; conditions: NCI-H460, 48 h, read-out: Activity
[20] = system: SF-539; experiment: Cytotoxicity against human SF539 cells assessed as cell growth at 1 uM after 48 hrs by sulforhodamine B assay relative to control; conditions: SF-539, 48 h, read-out: Activity
[21] = system: SK-MEL-5; experiment: Cytotoxicity against human SK-MEL-5 cells assessed as cell growth at 1 uM after 48 hrs by sulforhodamine B assay relative to control; conditions: SK-MEL-5, 48 h, read-out: Activity
[22] = system: OVCAR-3; experiment: Cytotoxicity against human OVCAR3 cells assessed as cell growth at 1 uM after 48 hrs by sulforhodamine B assay relative to control; conditions: OVCAR-3, 48 h, read-out: Activity
[23] = system: NCI/ADR-RES; experiment: Cytotoxicity against human NCI/ADR-RES cells assessed as cell growth at 1 uM after 48 hrs by sulforhodamine B assay relative to control; conditions: read-out: Activity
[24] = system: MOLT-4; experiment: Cytotoxicity against human MOLT4 cells assessed as cell growth at 10 uM after 48 hrs by sulforhodamine B assay relative to control; conditions: MOLT-4, 48 h, read-out: Activity
[25] = system: HCT-15; experiment: Cytotoxicity against human HCT15 cells assessed as cell growth at 10 uM after 48 hrs by sulforhodamine B assay relative to control; conditions: HCT-15, 48 h, read-out: Activity
[26] = system: M14; experiment: Cytotoxicity against human M14 cells assessed as cell growth at 10 uM after 48 hrs by sulforhodamine B assay relative to control; conditions: M14, 48 h, read-out: Activity
[27] = system: OVCAR-4; experiment: Cytotoxicity against human OVCAR4 cells assessed as cell growth at 10 uM after 48 hrs by sulforhodamine B assay relative to control; conditions: OVCAR-4, 48 h, read-out: Activity
[28] = system: A549; experiment: Cytotoxicity against human A549/ATCC cells assessed as cell growth at 100 uM after 48 hrs by sulforhodamine B assay relative to control; conditions: A549, 48 h, read-out: Activity
[29] = system: NCI-H226; experiment: Cytotoxicity against human NCI-H226 cells assessed as cell growth at 100 uM after 48 hrs by sulforhodamine B assay relative to control; conditions: NCI-H226, 48 h, read-out: Activity
[30] = system: NCI-H460; experiment: Cytotoxicity against human NCI-H460 cells assessed as cell growth at 100 uM after 48 hrs by sulforhodamine B assay relative to control; conditions: NCI-H460, 48 h, read-out: Activity
[31] = system: KM12; experiment: Cytotoxicity against human KM12 cells assessed as cell growth at 100 uM after 48 hrs by sulforhodamine B assay relative to control; conditions: KM12, 48 h, read-out: Activity
[32] = system: U-251; experiment: Cytotoxicity against human U251 cells assessed as cell growth at 100 uM after 48 hrs by sulforhodamine B assay relative to control; conditions: U-251, 48 h, read-out: Activity
[33] = system: SK-MEL-5; experiment: Cytotoxicity against human SK-MEL-5 cells assessed as cell growth at 100 uM after 48 hrs by sulforhodamine B assay relative to control; conditions: SK-MEL-5, 48 h, read-out: Activity
[34] = system: OVCAR-8; experiment: Cytotoxicity against human OVCAR8 cells assessed as cell growth at 100 uM after 48 hrs by sulforhodamine B assay relative to control; conditions: OVCAR-8, 48 h, read-out: Activity
[35] = system: A498; experiment: Cytotoxicity against human A498 cells assessed as cell growth at 100 uM after 48 hrs by sulforhodamine B assay relative to control; conditions: A498, 48 h, read-out: Activity
[36] = system: Hs-578T; experiment: Cytotoxicity against human Hs 578T cells assessed as cell growth at 100 uM after 48 hrs by sulforhodamine B assay relative to control; conditions: read-out: Activity

SMILES: COc1ccc(C(=O)/C=C/c2cc(-c3cc(OC)c(OC)c(OC)c3)n[nH]2)cc1OC
- TGI [1]: 5.56 µM
- CC50 [1]: > 100 µM
- LC50 [2]: 5.35 µM
- TGI [2]: 2.77 µM
- LC50 [3]: 7.86 µM
- TGI [3]: 3.33 µM
- LC50 (concentration killing 50% of cells) [4]: 7.38 µM
- TGI [4]: 3.69 µM
- LC50 [5]: > 100 µM
- TGI [5]: 15.7 µM
- LC50 [6]: 5.82 µM
- TGI [6]: 2.86 µM
- growth at 0.01 µM [7]: 97%
- growth at 0.01 µM [8]: 101%
- growth at 0.01 µM [9]: 93%
- growth at 0.01 µM [10]: 98%
- growth at 0.1 µM [11]: 98%
- growth at 0.1 µM [12]: 95%
- growth at 0.1 µM [13]: 98%
- growth at 0.1 µM [14]: 96%
- growth at 0.1 µM [15]: 92%
- growth at 0.1 µM [16]: 95%
- growth at 0.1 µM [17]: 105%
- growth at 1 µM [18]: 67%
- growth at 1 µM [19]: 70%
- growth at 1 µM [20]: 67%
- growth at 1 µM [21]: 91%
- growth at 1 µM [22]: 91%
- growth at 1 µM [23]: 90%
- growth at 10 µM [24]: -30%
- growth at 10 µM [25]: -78%
- growth at 10 µM [26]: -72%
- growth at 10 µM [27]: 23%
- growth at 100 µM [28]: -78%
- growth at 100 µM [29]: -49%
- growth at 100 µM [30]: -65%
- growth at 100 µM [31]: -75%
- growth at 100 µM [32]: -99%
- growth at 100 µM [33]: -92%
- growth at 100 µM [34]: -96%
- growth at 100 µM [35]: -96%
- growth at 100 µM [36]: -15%

SMILES: COc1ccc(C(=O)/C=C/c2cc(-c3cc(OC)c(OC)c(OC)c3)n[nH]2)cc1
- TGI [1]: 6.82 µM
- CC50 [1]: > 100 µM
- LC50 [2]: 8.07 µM
- TGI [2]: 3.77 µM
- LC50 [3]: 8.18 µM
- TGI [3]: 3.75 µM
- LC50 (concentration killing 50% of cells) [4]: > 100 µM
- TGI [4]: 4.93 µM
- LC50 [5]: > 100 µM
- TGI [5]: 9.85 µM
- TGI [6]: 4.13 µM
- growth at 0.01 µM [7]: 100%
- growth at 0.01 µM [8]: 99%
- growth at 0.01 µM [9]: 93%
- growth at 0.01 µM [10]: 99%
- growth at 0.1 µM [11]: 99%
- growth at 0.1 µM [12]: 97%
- growth at 0.1 µM [13]: 97%
- growth at 0.1 µM [14]: 94%
- growth at 0.1 µM [15]: 98%
- growth at 0.1 µM [16]: 97%
- growth at 0.1 µM [17]: 99%
- growth at 1 µM [18]: 99%
- growth at 1 µM [19]: 85%
- growth at 1 µM [20]: 87%
- growth at 1 µM [21]: 93%
- growth at 1 µM [22]: 89%
- growth at 1 µM [23]: 90%
- growth at 10 µM [24]: -20%
- growth at 10 µM [25]: -41%
- growth at 10 µM [26]: -44%
- growth at 10 µM [27]: -7%
- growth at 100 µM [28]: 1%
- growth at 100 µM [29]: -35%
- growth at 100 µM [30]: -62%
- growth at 100 µM [31]: -74%
- growth at 100 µM [32]: -25%
- growth at 100 µM [33]: -93%
- growth at 100 µM [34]: -16%
- growth at 100 µM [35]: -34%
- growth at 100 µM [36]: 5%

SMILES: COc1cc(C(=O)/C=C/c2cc(-c3ccc4c(c3)OCO4)n[nH]2)cc(OC)c1OC
- GI50 [1]: 2.71 µM
- TGI [1]: 8.36 µM
- CC50 [1]: > 100 µM
- GI50 [2]: 2.33 µM
- LC50 [2]: 24.5 µM
- TGI [2]: 6.24 µM
- GI50 [3]: 1.81 µM
- LC50 [3]: 7.84 µM
- TGI [3]: 3.77 µM
- GI50 [4]: 2.91 µM
- LC50 (concentration killing 50% of cells) [4]: 37.8 µM
- TGI [4]: 9.21 µM
- GI50 [5]: 2.99 µM
- LC50 [5]: > 100 µM
- TGI [5]: 12.3 µM
- GI50 [6]: 1.84 µM
- LC50 [6]: 6.51 µM
- TGI [6]: 3.46 µM
- growth at 0.01 µM [7]: 98%
- growth at 0.01 µM [8]: 98%
- growth at 0.01 µM [9]: 95%
- growth at 0.01 µM [10]: 97%
- growth at 0.1 µM [11]: 97%
- growth at 0.1 µM [12]: 96%
- growth at 0.1 µM [13]: 93%
- growth at 0.1 µM [14]: 94%
- growth at 0.1 µM [15]: 100%
- growth at 0.1 µM [16]: 98%
- growth at 0.1 µM [17]: 105%
- growth at 1 µM [18]: 85%
- growth at 1 µM [19]: 90%
- growth at 1 µM [20]: 68%
- growth at 1 µM [21]: 89%
- growth at 1 µM [22]: 87%
- growth at 1 µM [23]: 94%
- growth at 10 µM [24]: -8%
- growth at 10 µM [25]: -16%
- growth at 10 µM [26]: -4%
- growth at 10 µM [27]: -28%
- growth at 100 µM [28]: -80%
- growth at 100 µM [29]: -46%
- growth at 100 µM [30]: -78%
- growth at 100 µM [31]: -79%
- growth at 100 µM [32]: -98%
- growth at 100 µM [33]: -97%
- growth at 100 µM [34]: -92%
- growth at 100 µM [35]: -98%
- growth at 100 µM [36]: -22%
